The compounds below were run against PKC delta kinase (Homo sapiens, UniProt Q05655) (assay: PKC Delta coupled-enzyme kinase assay). Conditions: not given.
Sequence of PKC delta kinase (Q05655 whole entry): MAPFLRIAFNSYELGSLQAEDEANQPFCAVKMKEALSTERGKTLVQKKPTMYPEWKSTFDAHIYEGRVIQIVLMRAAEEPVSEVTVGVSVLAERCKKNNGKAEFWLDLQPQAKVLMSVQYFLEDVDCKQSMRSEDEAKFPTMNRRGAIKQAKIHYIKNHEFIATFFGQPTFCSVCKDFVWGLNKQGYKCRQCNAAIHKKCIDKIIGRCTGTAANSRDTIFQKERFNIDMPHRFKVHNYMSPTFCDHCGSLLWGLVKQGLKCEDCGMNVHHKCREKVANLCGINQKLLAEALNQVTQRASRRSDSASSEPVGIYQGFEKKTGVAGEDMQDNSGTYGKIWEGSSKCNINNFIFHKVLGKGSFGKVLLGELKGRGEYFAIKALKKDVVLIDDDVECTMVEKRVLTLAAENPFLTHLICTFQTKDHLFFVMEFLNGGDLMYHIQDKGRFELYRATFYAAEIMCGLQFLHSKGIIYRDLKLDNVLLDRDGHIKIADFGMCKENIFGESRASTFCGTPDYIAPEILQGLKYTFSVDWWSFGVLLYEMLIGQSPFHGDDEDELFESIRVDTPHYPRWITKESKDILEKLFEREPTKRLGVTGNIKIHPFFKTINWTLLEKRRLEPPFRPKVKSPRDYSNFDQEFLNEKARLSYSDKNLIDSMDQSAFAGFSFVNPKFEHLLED
Format: biochemical
Procedure: An assay buffer solution was prepared which consisted of 100 mM HEPES (pH 7.5), 10 mM MgCl2, 25 mM NaCl, 0.1 mM EDTA and 0.01% Brij. […] To 16 μL of this enzyme buffer, in a 384 well plate, was added 1 μL of VRT stock solution in DMSO. The mixture was allowed to equilibrate for 10 mins at 30° C. […] Ki values were calculated from initial rate data by non-linear regression using the Prism software package (Prism 4.0a, Graphpad Software, San Diego, Calif.).
CC1(C)CN(c2cccc(C(=O)c3cccnc3N)n2)CCN1 [compound 226] showed a Ki of 50 to 500 nM. For CC(C)[C@@H]1CN(c2cccc(C(=O)c3cccnc3N)n2)CCN1 [compound 231], the Ki was 500 to 2800 nM. Nc1ncccc1C(=O)c1cccc(N2CCC(N)CC2)n1 [compound 86] gave a Ki of 50 to 500 nM. For CC(C)(C)[C@H]1CN(c2cccc(C(=O)c3cccnc3N)n2)CCN1 [compound 225], the Ki was 50 to 500 nM.

Same assay, conditions: 46 nM PKC delta, 150 μM ATP, 30° C.; read-out: Ki PKC delta
Nc1ncccc1C(=O)c1cccc(N2CCNC(c3ccc(O)cc3)C2)n1 (stereo not shown) [compound 312] was tested, and the Ki was 50 to 500 nM. For Nc1ncccc1C(=O)c1cccc(N2CCNC(c3ccc(F)cc3)C2)n1 (stereo not shown) [compound 295], the Ki was 50 to 500 nM. In the case of Nc1ncc(Br)cc1C(=O)c1cccc(N2CCCN(C(=O)c3ccccc3Cl)CC2)n1 [compound 151], the Ki is reported as 500 to 2800 nM. In the case of Cc1sc(N2CCNC[C@H]2C)nc1C(=O)c1cccnc1N [compound 247], the Ki is reported as 500 to 2800 nM. Compound CN(C)c1cccc(-c2cccc(C(=O)c3cccnc3N)n2)c1 [compound 293] has a Ki greater than 2800 nM. Nc1ncc(-c2ccccc2)cc1C(=O)c1cccc(N2CCNC(c3ccccc3)C2)n1 (stereo not shown) [compound 262] gave a Ki of 500 to 2800 nM. Work on C[C@H]1CN(c2cccc(C(=O)c3cccnc3N)n2)[C@@H](C)CN1 [compound 218] yielded a Ki of 50 to 500 nM. For Nc1ncc(Br)cc1C(=O)c1cccc(N2CCCN(C(=O)c3ccccc3C(F)(F)F)CC2)n1 [compound 150], the Ki was 50 to 500 nM. Compound Nc1ncc(Br)cc1C(=O)c1cncc(N2CCCNCC2)n1 [compound 149] has a Ki of 50 to 500 nM. COc1cccc(C2CN(c3ccc(C(F)(F)F)c(C(=O)c4cccnc4N)n3)CCN2)c1 (stereo not shown) [compound 397] showed a Ki of 50 to 500 nM. Work on Nc1ncc(-c2ccc(O)cc2)cc1C(=O)c1cccc(N2CCCNCC2)n1 [compound 171] yielded a Ki of 50 to 500 nM. Compound CC(C)C(=O)N1CCCN(c2cccc(C(=O)c3cccnc3N)n2)CC1 [compound 34] has a Ki of 500 to 2800 nM. With COc1ccccc1-c1cnc(N)c(C(=O)c2cccc(N3CCNC(c4ccccc4)C3)n2)c1 (stereo not shown) [compound 284] the Ki was 50 to 500 nM. Work on Nc1ncc(-c2ccc[nH]2)cc1C(=O)c1cccc(N2CCCNCC2)n1 [compound 183] yielded a Ki of 50 to 500 nM. For Nc1ncccc1C(=O)c1nc(N2CCNCC2)ccc1Cl [compound 315], the Ki was 50 to 500 nM. With Nc1ncc(Br)cc1C(=O)c1nc(N2CCNC(c3ccccc3)C2)ccc1Cl (stereo not shown) [compound 331] the Ki was 50 to 500 nM. With Nc1ncc(Br)cc1C(=O)c1ncc(C(=O)NCc2ccccc2)s1 [compound 62] the Ki was 50 to 500 nM. With CC(C)C[C@H]1CN(c2cccc(C(=O)c3cc(-c4ccccc4)cnc3N)n2)CCN1 [compound 239] the Ki was 500 to 2800 nM. For Nc1ncccc1C(=O)c1nc(N2CCNC(c3ccccc3)C2)ccc1C(F)F (stereo not shown) [compound 404], the Ki was 50 to 500 nM. Work on Nc1ncc(-c2ccccc2)cc1C(=O)c1cccc(N2CCNCC2)n1 [compound 206] yielded a Ki of 50 to 500 nM. In the case of Nc1ncccc1C(=O)c1cccc(N2CCNC(c3ccccc3Cl)C2)n1 (stereo not shown) [compound 258], the Ki is reported as 50 to 500 nM. Work on COc1cccc(-c2cnc(N)c(C(=O)c3cccc(N4CCCNCC4)n3)c2)c1 [compound 181] yielded a Ki of 50 to 500 nM. Work on Nc1ncc(-c2cccnc2)cc1C(=O)c1cccc(N2CCCNCC2)n1 [compound 58] yielded a Ki of 50 to 500 nM. Work on Nc1ncc(-c2ccsc2)cc1C(=O)c1cccc(N2CCNC(c3ccccc3)C2)n1 (stereo not shown) [compound 264] yielded a Ki of 500 to 2800 nM. Compound Nc1ncccc1C(=O)c1nc(N2CCCNCC2)ccc1C(F)(F)F [compound 318] has a Ki of 50 to 500 nM. Nc1ncccc1C(=O)c1cccc(N2CCNC(c3cccnc3)C2)n1 (stereo not shown) [compound 249] was tested, and the Ki was 50 to 500 nM. Nc1ncc(Br)cc1C(=O)c1nc(N2CCNCC2)ccc1Cl [compound 329] showed a Ki of 50 to 500 nM. Work on CC(C)C[C@H]1CN(c2cccc(C(=O)c3cccnc3N)n2)CCN1C(=O)CC(F)(F)F [compound 219] yielded a Ki greater than 2800 nM. In the case of C=Cc1cnc(N)c(C(=O)c2cncc(N3CCCNCC3)n2)c1 [compound 165], the Ki is reported as 50 to 500 nM. Nc1ncc(-c2cccc(O)c2)cc1C(=O)c1cccc(N2CCCNCC2)n1 [compound 172] was tested, and the Ki was 50 to 500 nM. Compound N#CC1(c2cccc(C(=O)c3cccnc3N)n2)CCNCC1 [compound 280] has a Ki of 50 to 500 nM. Nc1ncccc1C(=O)c1nc(N2CCNC(c3ccccc3)C2)ccc1Cl (stereo not shown) [compound 321] gave a Ki of 50 to 500 nM. For CC(C)C[C@H](N)CNc1ccc(C(F)(F)F)c(C(=O)c2cccnc2N)n1 [compound 396], the Ki was 50 to 500 nM. Work on CC(C)[C@@H]1CNCCN1c1cccc(C(=O)c2cccnc2N)n1 [compound 237] yielded a Ki of 50 to 500 nM. For N#Cc1cnc(N)c(C(=O)c2cccc(N3CCCNCC3)n2)c1 [compound 302], the Ki was 500 to 2800 nM. In the case of CCc1cnc(N)c(C(=O)c2cccc(N3CCCN(C)CC3)n2)c1 [compound 153], the Ki is reported as 500 to 2800 nM. Compound C[C@H]1CNCCN1c1cccc(C(=O)c2cccnc2N)n1 [compound 228] has a Ki of 50 to 500 nM. Nc1ncc(-c2ccc(CO)cc2)cc1C(=O)c1cccc(N2CCNC(c3ccccc3)C2)n1 (stereo not shown) [compound 282] showed a Ki of 50 to 500 nM. Work on Nc1ncc(Br)cc1C(=O)c1cccc(N2CCCN(CCO)CC2)n1 [compound 98] yielded a Ki of 50 to 500 nM. CC(C)(C)C(=O)N1CCCN(c2cccc(C(=O)c3cccnc3N)n2)CC1 [compound 37] was tested, and the Ki was 500 to 2800 nM. Nc1ncccc1C(=O)c1nc(N2CCCNCC2)ccc1Cl [compound 324] was tested, and the Ki was 50 to 500 nM. COc1ccc(-c2cnc(N)c(C(=O)c3cccc(N4CCCNCC4)n3)c2)cc1 [compound 186] was tested, and the Ki was 50 to 500 nM. In the case of Nc1ncccc1C(=O)c1cccc(N2CCNC(c3cccc(C(F)(F)F)c3)C2)n1 (stereo not shown) [compound 314], the Ki is reported as 50 to 500 nM. CN1CCCN(c2csc(C(=O)c3cc(Br)cnc3N)n2)CC1 [compound 163] was tested, and the Ki was 50 to 500 nM. COc1cccc(-c2cnc(N)c(C(=O)c3cccc(N4CCNC(c5ccccc5)C4)n3)c2)c1 (stereo not shown) [compound 286] gave a Ki of 50 to 500 nM. For Nc1ncccc1C(=O)c1cccc(N2CCCN(C(=O)CCC(F)(F)F)CC2)n1 [compound 31], the Ki was 500 to 2800 nM. Work on Cc1ccccc1-c1cnc(N)c(C(=O)c2cccc(N3CCCNCC3)n2)c1 [compound 57] yielded a Ki of 500 to 2800 nM. Compound Nc1ncc(Cl)cc1C(=O)c1cccc(N2CCCNCC2)n1 [compound 245] has a Ki of 50 to 500 nM. Compound Nc1ncc(-c2ccncc2)cc1C(=O)c1cccc(N2CCNC(c3ccccc3)C2)n1 (stereo not shown) [compound 288] has a Ki of 500 to 2800 nM. Work on Nc1ncc(-c2csc3ccccc23)cc1C(=O)c1cccc(N2CCCNCC2)n1 [compound 200] yielded a Ki of 50 to 500 nM. Work on Nc1ncc(-c2cc3ccccc3s2)cc1C(=O)c1cccc(N2CCNC(c3ccccc3)C2)n1 (stereo not shown) [compound 265] yielded a Ki of 500 to 2800 nM. Work on Nc1ncc(-c2cccc(CO)c2)cc1C(=O)c1cccc(N2CCNC(c3ccccc3)C2)n1 (stereo not shown) [compound 283] yielded a Ki of 50 to 500 nM. In the case of C=Cc1cnc(N)c(C(=O)c2cccc(N3CCN[C@@H](CC(C)C)C3)n2)c1 [compound 233], the Ki is reported as 50 to 500 nM. For Nc1ncccc1C(=O)c1cccc(N2CCNC(c3ccc(Cl)c(Cl)c3)C2)n1 (stereo not shown) [compound 313], the Ki was 50 to 500 nM. With Nc1cccc(-c2cnc(N)c(C(=O)c3cccc(N4CCCNCC4)n3)c2)c1 [compound 169] the Ki was 50 to 500 nM. With CC1CN(c2cccc(C(=O)c3cccnc3N)n2)C(C)CN1 (stereo not shown) [compound 222] the Ki was 50 to 500 nM. In the case of CC(C)C[C@H](N)COc1ccc(C(F)(F)F)c(C(=O)c2cccnc2N)n1 [compound 406], the Ki is reported as 50 to 500 nM. For CC(C)C[C@H]1CN(c2cccc(C(=O)c3cc(Br)cnc3N)n2)CCN1 [compound 232], the Ki was 50 to 500 nM. C=Cc1cnc(N)c(C(=O)c2cccc(N3CCCN(C)CC3)n2)c1 [compound 152] was tested, and the Ki was 50 to 500 nM. In the case of Nc1ncc(Br)cc1C(=O)c1cccc(N2CCNCC2)n1 [compound 195], the Ki is reported as 50 to 500 nM. COc1ccccc1C1CN(c2cccc(C(=O)c3cccnc3N)n2)CCN1 (stereo not shown) [compound 296] was tested, and the Ki was 50 to 500 nM. For Nc1ncc(-c2c[nH]c3ccccc23)cc1C(=O)c1cccc(N2CCNC(c3ccccc3)C2)n1 (stereo not shown) [compound 268], the Ki was 50 to 500 nM. N#Cc1ccccc1-c1cnc(N)c(C(=O)c2cccc(N3CCNC(c4ccccc4)C3)n2)c1 (stereo not shown) [compound 269] showed a Ki of 50 to 500 nM. In the case of Nc1ncc(-c2csc3ccccc23)cc1C(=O)c1cccc(N2CCNC(c3ccccc3)C2)n1 (stereo not shown) [compound 266], the Ki is reported as 500 to 2800 nM. With CC1(N)CCN(c2cccc(C(=O)c3cccnc3N)n2)CC1 [compound 305] the Ki was 50 to 500 nM. In the case of Cc1cnc(N)c(C(=O)c2cccc(N3CCCNCC3)n2)c1 [compound 155, (6-(1,4-diazepan-1-yl)pyridin-2-yl)(2-amino-5-methylpyridin-3-yl)methanone bis(2,2,2-trifluoroacetate)], the Ki is reported as 500 to 2800 nM. Nc1ncccc1C(=O)c1nc(N2CCNCC2)ccc1C(F)(F)F [compound 316] was tested, and the Ki was 50 to 500 nM. Nc1ncc(C2CC2)cc1C(=O)c1cccc(N2CCCNCC2)n1 [compound 154] was tested, and the Ki was 50 to 500 nM. Nc1ncc(/C=C/c2ccccc2)cc1C(=O)c1cccc(N2CCNC(c3ccccc3)C2)n1 (stereo not shown) [compound 290] showed a Ki of 50 to 500 nM. Cc1ccc(-c2cnc(N)c(C(=O)c3cccc(N4CCCNCC4)n3)c2)cc1 [compound 59] showed a Ki of 50 to 500 nM. In the case of Cc1cc(C)c(CC2CN(c3cccc(C(=O)c4cccnc4N)n3)CCN2)c(C)c1 (stereo not shown) [compound 244], the Ki is reported as greater than 2800 nM. With CC(C)C[C@H]1CN(c2ccc(OC(F)F)c(C(=O)c3cccnc3N)n2)CCN1 [compound 356] the Ki was 50 to 500 nM. Nc1ncc(-c2cccs2)cc1C(=O)c1cccc(N2CCNC(c3ccccc3)C2)n1 (stereo not shown) [compound 263] gave a Ki of 50 to 500 nM. In the case of Nc1ncccc1C(=O)c1cccc(N2CCN3CCCC3C2)n1 (single isomer, unassigned) [compound 211], the Ki is reported as 50 to 500 nM. In the case of CC(C)(C)CCN1CCCN(c2cccc(C(=O)c3cccnc3N)n2)CC1 [compound 44], the Ki is reported as greater than 2800 nM. In the case of COc1cccc(C2CN(c3cccc(C(=O)c4cccnc4N)n3)CCN2)c1 (stereo not shown) [compound 309], the Ki is reported as 500 to 2800 nM. In the case of Nc1ncccc1C(=O)c1cccc(N2CCCN(C(=O)Cc3ccccc3)CC2)n1 [compound 33], the Ki is reported as 50 to 500 nM. With Nc1ncc(-c2cc[nH]c2)cc1C(=O)c1cccc(N2CCCNCC2)n1 [compound 199] the Ki was 50 to 500 nM.

— US20110077237A1, “KINASE INHIBITORS” (VERTEX PHARMACEUTICALS INCORPORATED, priority 2007, published 2011)
